Test results reported in patent publication US20040047804A1, “Enhanced radiation therapy” (The General Hospital Corporation, a Massachusetts …, priority 1998, published 2004).
Read-outs that look alike come from different tables or passages of the source.

How the values were obtained:
[1] = test system: human adenocarcinomas (LS 174T); parameters: species or system mice; details: mouse, in vivo
Procedure: Immunologically tolerant mice were implanted with several different human neoplasms. When the tumors reached a size of 1-2 cm, radiodense compositions were injected intratumorally via a percutaneous route using a 27 gauge needle. The mice and their tumors where then serially imaged with computed tomography to determine the local pharmacokinetics of the injectates by measuring the x-ray attenuation (in HU) of regions of interest.
FIG. 3 is a plot of the temporal change of x-ray attenuation in a mouse bearing a human adenocarcinomas (LS 174T). The radiodense material was a water soluble, small molecule radiodense material (Omnipaque™ with a concentration of 350 mg I/ml as iohexol). A peak contrast of nearly 3000 HU was attained in the center of the tumor, with smaller degrees of contrast enhancement surrounding the injected area. This small molecule was rapidly cleared with values of only 2000 HU at the peak location 60 minutes later.

[2] = test system: VX2 tumors; experiment: In vivo radiation enhancement, systemic radiodense material plus internal radiation probe; parameters: species or system rabbit; details: systemic bolus 3 ml/kg
Procedure: Three rabbits with VX2 tumors growing in the thigh were used to evaluate the radiation therapy effect of the new radiodense compositions and radiation administered internally. In the first rabbit, iohexol was injected systemically as a bolus in a volume of 3 ml/kg, resulting in a peak enhancement of the leaky edge of the tumor by over 50 HU. Radiation of 30 Gy was administered over 45 minutes using a delivery energy of 40 Kev from the probe tip, which was centered in the tumor. The next day, the rabbit was euthanized following the administration of Evans Blue to demarcate the leaky vasculature of the treated tumor as well as an untreated, control tumor in the opposite thigh. […] All of the viable cells were located in the edge of the treated tumor and this edge of viable cells was much smaller than the rim of viable cells in the untreated tumor. Two additional rabbits were treated with a nearly identical protocol, except that the same radiodense material was given as an intravenous bolus plus a sustaining infusion to keep the leaky portions of the tumor enhanced for the entire duration of the radiation treatment. In these two experiments, no evidence of viable tumor was seen on serial computed tomography studies over the next several days. […]

[3] = test system: VX2 tumors
Procedure: About […] of either a small molecule radiodense material (iohexol) or a large molecule radiodense material (WIN 8883) was injected directly into separate VX2 tumors growing in the thigh of a rabbit. To measure the diffusion time of the two materials in the tumor interstitium, the rabbit was euthanized and the corpus imaged using CT over the next 24 hours to measure the spatial and temporal distribution of each material.

[4] = test system: V79 Chinese Hamster Ovary cancer cells; experiment: In vitro radiation enhancement, survival of irradiated tumor cells; format: cell-based; details: radiation dosage of 9.0 Gy
Text: The effect of the new radiodense compositions on cancer cells was also studied in vitro. Individual V79 Chinese Hamster Ovary cancer cells were suspended in nutrient medium in test tubes and mixed with a sufficient amount of one of several new radiodense compositions to increase the radiodensity of the cell suspension. […] At a radiation energy level of 12 Gy, about 8×10^-1 cells survived in the nutrient medium alone, while only 1×10^-3 to 1×10^-4 survived in the presence of the radiodense materials.

x-ray attenuation at the peak location 60 minutes later [1] [HU] | peak enhancement of the leaky edge of the tumor [2] | Structure (SMILES) | necrosis of viable tumor cells in the treated leg, compared with the control ([2]; 30 Gy over 45 minutes at 40 Kev from probe centered in tumor, histology next day) | Volume (total number of intratumoral voxels containing at least 200 HU) ([3]; 1.5 Hrs) [voxels] | Volume (total number of intratumoral voxels containing at least 200 HU) ([3]; 4.5 Hrs) [voxels] | Volume (total number of intratumoral voxels containing at least 200 HU) ([3]; 21.0 Hrs) [voxels] | Volume (total number of intratumoral voxels containing at least 200 HU) ([3]; Initial) [voxels] | relative effectiveness among the radiodense materials [4]
2000 | over 50 HU | CC(=O)N(CC(O)CO)c1c(I)c(C(=O)NCC(O)CO)c(I)c(C(=O)NCC(O)CO)c1I (stereo not drawn) [iohexol] | about 95% | 23912 | 22104 | 44720 | 12722 | –
– | – | CCOC(=O)c1c(I)c(NC(C)=O)c(I)c(NC(C)=O)c1I [Win 8883, ethyl-bis(3,5-acetylamino)-2,4,6-triiodobenzoate] | – | 10898 | 11826 | 11682 | 10420 | –
– | – | CC(=O)N(CC(O)CN(C(C)=O)c1c(I)c(C(=O)NCC(O)CO)c(I)c(C(=O)NCC(O)CO)c1I)c1c(I)c(C(=O)NCC(O)CO)c(I)c(C(=O)NCC(O)CO)c1I (stereo not drawn) [iodix, iodixanol] | – | – | – | – | – | more effective
